This passage reports IC50 results from patent US7820623B2 (priority 2006, dated 2010).

Assay [1] has as its system thapsigargin-induced IFN-g production in human whole blood. In kind it is cell-based.
The test system of assay [2] is thapsigargin-induced IL-2 production in human whole blood.
Setting [3] is: read-out: Analogue Activity (IC50) WB/IFNg.
Setting [4] is: read-out: Analogue Activity (IC50) WB/IL-2.

Where two headings read alike, the source gives them in different places. Bridge positions count the residues as written; N and C are the ends. Square brackets hold non-standard residues; d marks the D form. Ends that are not written are not given here. Peptide text beside a SMILES is read from it. 1Nal = N[C@@H](Cc1cccc2ccccc12)C(=O)O

As to `CC[C@H](C)[C@@H]1NC(=O)[C@H](CCCCN)NC(=O)[C@@H](NC(=O)[C@H](CCCCN)NC(=O)[C@@H](NC(=O)[C@H](CC(N)=O)NC(=O)[C@@H](NC(=O)[C@@H](NC(=O)[C@@H](NC(=O)CN)C(C)C)[C@@H](C)CC)[C@@H](C)CC)C(C)C)CSSC[C@@H]2NC(=O)[C@H](CCCCN)NC(=O)CNC(=O)[C@H](Cc3ccccc3)NC(=O)[C@H](CCCNC(=N)N)NC(=O)[C@H](Cc3cccc4ccccc34)NC(=O)CNC(=O)[C@H](C)NC(=O)[C@H](CCCCN)NC(=O)[C@H](CCCCN)NC(=O)[C@@H]3CSSC[C@@H](C(=O)N[C@H](C(=O)N4CCC[C@H]4C(=O)N[C@@H](CCCCN)C(=O)O)[C@@H](C)O)NC(=O)[C@H](Cc4c[nH]cn4)NC(=O)[C@H](CSSC[C@H](NC(=O)[C@H](CCC(N)=O)NC(=O)[C@H](CCCNC(=N)N)NC(=O)[C@H](CO)NC1=O)C(=O)N[C@@H](CC(C)C)C(=O)N[C@@H](CCC(=O)O)C(=O)N1CCC[C@H]1C(=O)N3)NC(=O)[C@H](CCCCN)NC(=O)CNC(=O)[C@H](CC(N)=O)NC(=O)[C@H](CCSC)NC2=O` [M23Nal] (H-GVIINVKCKISRQCLEPCKKAG[1Nal]RFGKCMNGKCHCTPK-OH; disulfide 8-28, 14-33, 18-35), the figures for the IC50 in assay [1] (setting [3]) and in assay [2] (setting [4]) were 1.11 nM and 0.581 nM, respectively.
On the same counts, the results for `CC[C@H](C)[C@@H]1NC(=O)[C@H](CCCCN)NC(=O)[C@@H](NC(=O)[C@H](CCCCN)NC(=O)[C@@H](NC(=O)[C@H](CC(N)=O)NC(=O)[C@H](Cc2cccc3ccccc23)NC(=O)[C@@H](NC(=O)[C@@H](NC(=O)CN)C(C)C)[C@@H](C)CC)C(C)C)CSSC[C@@H]2NC(=O)[C@H](CCCCN)NC(=O)CNC(=O)[C@H](Cc3ccccc3)NC(=O)[C@H](CCCNC(=N)N)NC(=O)[C@H](CCSC)NC(=O)CNC(=O)[C@H](C)NC(=O)[C@H](CCCCN)NC(=O)[C@H](CCCCN)NC(=O)[C@@H]3CSSC[C@@H](C(=O)N[C@H](C(=O)N4CCC[C@H]4C(=O)N[C@@H](CCCCN)C(=O)O)[C@@H](C)O)NC(=O)[C@H](Cc4c[nH]cn4)NC(=O)[C@H](CSSC[C@H](NC(=O)[C@H](CCC(N)=O)NC(=O)[C@H](CCCNC(=N)N)NC(=O)[C@H](CO)NC1=O)C(=O)N[C@@H](CC(C)C)C(=O)N[C@@H](CCC(=O)O)C(=O)N1CCC[C@H]1C(=O)N3)NC(=O)[C@H](CCCCN)NC(=O)CNC(=O)[C@H](CC(N)=O)NC(=O)[C@H](CCSC)NC2=O` [I4Nal] (H-GVI[1Nal]NVKCKISRQCLEPCKKAGMRFGKCMNGKCHCTPK-OH; disulfide 8-28, 14-33, 18-35) are 1.01 nM and 1.09 nM.
In the case of “des1-7, E16K, K20D, des36-38 (CKISRQCLKPCKDAGMRFGKCMNGKCHC-NH2; ends and bridges not checked)”, the IC50 in assay [1] (read-out: WB/IFNg (IC50)) amounted to 8.34 nM; in assay [2] (read-out: WB/IL-2 (IC50)) it was 8.18 nM.
For “R12A, E16K, K20D (GVIINVKCKISAQCLKPCKDAGMRFGKCMNGKCHCTPK)”, in that order: 0.092 nM and 0.041 nM.
For the compound `CC[C@H](C)[C@@H]1NC(=O)[C@H](CCCCN)NC(=O)[C@@H](NC(=O)[C@H](CCCCN)NC(=O)[C@@H](NC(=O)[C@H](CC(N)=O)NC(=O)[C@H](CCC(=O)O)NC(=O)[C@@H](NC(=O)[C@@H](NC(=O)CN)C(C)C)[C@@H](C)CC)C(C)C)CSSC[C@@H]2NC(=O)[C@H](CCCCN)NC(=O)CNC(=O)[C@H](Cc3ccccc3)NC(=O)[C@H](CCCNC(=N)N)NC(=O)[C@H](CCSC)NC(=O)CNC(=O)[C@H](C)NC(=O)[C@H](CCCCN)NC(=O)[C@H](CCCCN)NC(=O)[C@@H]3CSSC[C@@H](C(=O)N[C@H](C(=O)N4CCC[C@H]4C(=O)N[C@@H](CCCCN)C(=O)O)[C@@H](C)O)NC(=O)[C@H](Cc4c[nH]cn4)NC(=O)[C@H](CSSC[C@H](NC(=O)[C@H](CCC(N)=O)NC(=O)[C@H](CCCNC(=N)N)NC(=O)[C@H](CO)NC1=O)C(=O)N[C@@H](CC(C)C)C(=O)N[C@@H](CCC(=O)O)C(=O)N1CCC[C@H]1C(=O)N3)NC(=O)[C@H](CCCCN)NC(=O)CNC(=O)[C@H](CC(N)=O)NC(=O)[C@H](CCSC)NC2=O` [I4E] (H-GVIENVKCKISRQCLEPCKKAGMRFGKCMNGKCHCTPK-OH; disulfide 8-28, 14-33, 18-35), the IC50 stood at 0.191 nM in assay [1] (setting [3]) and 0.218 nM in assay [2] (setting [4]).
Consider “GVIINVKCKISRQCLEPCKKAGMRFGKCMAGKCHCTPK [Ala-30 (SEQ ID No: 1425)]”, for which the IC50 worked out at 0.637 nM in assay [1] (read-out: Average IC50 IFNg) and 0.971 nM in assay [2] (read-out: Average IC50 IL-2).
`CC[C@H](C)[C@@H]1NC(=O)[C@H](CCCCN)NC(=O)[C@@H](NC(=O)[C@H](CCCCN)NC(=O)[C@@H](NC(=O)[C@H](CC(N)=O)NC(=O)[C@@H](NC(=O)[C@@H](NC(=O)[C@@H](NC(=O)CN)C(C)C)[C@@H](C)CC)[C@@H](C)CC)C(C)C)CSSC[C@@H]2NC(=O)[C@H](CCCCN)NC(=O)CNC(=O)[C@H](Cc3ccccc3)NC(=O)[C@H](CCCNC(=N)N)NC(=O)[C@H](CCSC)NC(=O)CNC(=O)[C@H](C)NC(=O)[C@H](CCCCN)NC(=O)[C@H](CCCCN)NC(=O)[C@@H]3CSSC[C@@H](C(=O)N[C@H](C(=O)N4CCC[C@H]4C(=O)N[C@@H](CCC(=O)O)C(=O)O)[C@@H](C)O)NC(=O)[C@H](Cc4c[nH]cn4)NC(=O)[C@H](CSSC[C@H](NC(=O)[C@H](CCC(N)=O)NC(=O)[C@H](CCCNC(=N)N)NC(=O)[C@H](CO)NC1=O)C(=O)N[C@@H](CC(C)C)C(=O)N[C@@H](CCC(=O)O)C(=O)N1CCC[C@H]1C(=O)N3)NC(=O)[C@H](CCCCN)NC(=O)CNC(=O)[C@H](CC(N)=O)NC(=O)[C@H](CCSC)NC2=O` [K38E] (H-GVIINVKCKISRQCLEPCKKAGMRFGKCMNGKCHCTPE-OH; disulfide 8-28, 14-33, 18-35): the IC50 in assay [1] (setting [3]) was 0.713 nM; in assay [2] (setting [4]), 0.526 nM.
For `CC[C@H](C)[C@@H]1NC(=O)[C@H](CCCCN)NC(=O)[C@@H](NC(=O)[C@H](CCCCN)NC(=O)[C@@H](NC(=O)[C@H](CC(N)=O)NC(=O)[C@@H](NC(=O)[C@@H](NC(=O)[C@@H](NC(=O)[C@H](C)N)C(C)C)[C@@H](C)CC)[C@@H](C)CC)C(C)C)CSSC[C@@H]2NC(=O)[C@H](CCCCN)NC(=O)CNC(=O)[C@H](Cc3ccccc3)NC(=O)[C@H](CCCNC(=N)N)NC(=O)[C@H](CCSC)NC(=O)CNC(=O)[C@H](C)NC(=O)[C@H](CCCCN)NC(=O)[C@H](CCCCN)NC(=O)[C@@H]3CSSC[C@@H](C(=O)N[C@H](C(=O)N4CCC[C@H]4C(=O)N[C@@H](CCCCN)C(=O)O)[C@@H](C)O)NC(=O)[C@H](Cc4c[nH]cn4)NC(=O)[C@H](CSSC[C@H](NC(=O)[C@H](CCC(N)=O)NC(=O)[C@H](CCCNC(=N)N)NC(=O)[C@H](CO)NC1=O)C(=O)N[C@@H](CC(C)C)C(=O)N[C@@H](CCC(=O)O)C(=O)N1CCC[C@H]1C(=O)N3)NC(=O)[C@H](CCCCN)NC(=O)CNC(=O)[C@H](CC(N)=O)NC(=O)[C@H](CCSC)NC2=O` [G1A] (H-AVIINVKCKISRQCLEPCKKAGMRFGKCMNGKCHCTPK-OH; disulfide 8-28, 14-33, 18-35), the IC50 was 0.119 nM in assay [1] (setting [3]) and 0.122 nM in assay [2] (setting [4]).
In the case of “E16K, K20D (GVIINVKCKISRQCLKPCKDAGMRFGKCMNGKCHCTPK; Definition of Artificial Sequence: Synthetic peptide)”, the IC50 is 1.32 nM in assay [1] (read-out: WB/IFNg (IC50)) and 1.58 nM in assay [2] (read-out: WB/IL-2 (IC50)).
Regarding `CC[C@H](C)[C@@H]1NC(=O)[C@H](CCCCN)NC(=O)[C@@H](NC(=O)[C@H](CCCCN)NC(=O)[C@@H](NC(=O)[C@H](CC(N)=O)NC(=O)[C@@H](NC(=O)[C@@H](NC(=O)[C@@H](NC(=O)CN)C(C)C)[C@@H](C)CC)[C@@H](C)CC)C(C)C)CSSC[C@@H]2NC(=O)[C@H](CCCCN)NC(=O)CNC(=O)[C@H](Cc3ccccc3)NC(=O)[C@H](CCCNC(=N)N)NC(=O)[C@H](CCSC)NC(=O)CNC(=O)[C@H](C)NC(=O)[C@H](CCCCN)NC(=O)[C@H](CCCCN)NC(=O)[C@@H]3CSSC[C@@H](C(=O)N[C@H](C(=O)N4CCC[C@H]4C(=O)N[C@@H](CCCCN)C(=O)O)[C@@H](C)O)NC(=O)[C@H](Cc4c[nH]cn4)NC(=O)[C@H](CSSC[C@H](NC(=O)[C@H](CCC(N)=O)NC(=O)[C@H](CCC(=O)O)NC(=O)[C@H](CO)NC1=O)C(=O)N[C@@H](CC(C)C)C(=O)N[C@@H](CCC(=O)O)C(=O)N1CCC[C@H]1C(=O)N3)NC(=O)[C@H](CCCCN)NC(=O)CNC(=O)[C@H](CC(N)=O)NC(=O)[C@H](CCSC)NC2=O` [R12E] (H-GVIINVKCKISEQCLEPCKKAGMRFGKCMNGKCHCTPK-OH; disulfide 8-28, 14-33, 18-35), the IC50 in assay [1] (setting [3]) turned out to be 2 nM; in assay [2] (setting [4]), 1.79 nM.
On the same counts, the results for `CC[C@H](C)[C@@H]1NC(=O)[C@H](CCCCN)NC(=O)[C@@H](NC(=O)[C@H](CCCCN)NC(=O)[C@@H](NC(=O)[C@H](CC(N)=O)NC(=O)[C@@H](NC(=O)[C@@H](NC(=O)[C@@H](NC(=O)CN)C(C)C)[C@@H](C)CC)[C@@H](C)CC)C(C)C)CSSC[C@@H]2NC(=O)[C@H](CCCCN)NC(=O)CNC(=O)[C@H](Cc3ccccc3)NC(=O)[C@H](CCCNC(=N)N)NC(=O)[C@H](CCSC)NC(=O)CNC(=O)[C@H](C)NC(=O)[C@H](CCCCN)NC(=O)[C@H](CCCCN)NC(=O)[C@@H]3CSSC[C@@H](C(=O)N[C@H](C(=O)N4CCC[C@H]4C(=O)N[C@@H](CCCCN)C(=O)O)[C@@H](C)O)NC(=O)[C@H](Cc4c[nH]cn4)NC(=O)[C@H](CSSC[C@H](NC(=O)[C@H](CCC(N)=O)NC(=O)[C@H](CCCNC(=N)N)NC(=O)[C@H](CO)NC1=O)C(=O)N[C@@H](CC(C)C)C(=O)N[C@@H](CCC(=O)O)C(=O)N1CCC[C@H]1C(=O)N3)NC(=O)[C@H](CCCCN)NC(=O)[C@H](CCCNC(=N)N)NC(=O)[C@H](CC(N)=O)NC(=O)[C@H](CCSC)NC2=O` [G31R] are 0.343 nM and 0.314 nM.
